Measured values: patent publication US7977343B2, “Adenine derivatives” (Merck Patent Gesellschaft mit beschrankter Haftung, priority 2005, dated 2011)

target: T1, Recombinant human HSP90α (Homo sapiens, UniProt P07900); assay: HSP90 radioligand filter binding test ([3H]17AAG competition); conditions: [3H]17AAG 0.08 μM, HSP90 1.5 μg/assay, 22° C., 30 min; read-out: HSP90 inhibition IC50
T1 construct: host or cells: E. coli
Excerpt: The binding of geldanamycin or 17-allylamino-17-demethoxygeldanamycin (17AAG) to HSP90 and competitive inhibition thereof can be utilised in order to determine the inhibitory activity of the compounds according to the invention (Carreras et al. 2003, Chiosis et al. 2002).
In the specific case, a radioligand filter binding test is used. The radioligand used here is tritium-labelled 17-allylaminogeldanamycin, [3H]17AAG. This filter binding test allows a targeted search for inhibitors which interfere with the ATP binding site.
Recombinant human HSP90α (E. coli expressed, 95% purity);
[3H]17AAG (17-allylaminogeldanamycin, [allylamino-2,3-^3H. Specific activity: 1.11×10^12 Bq/mmol (Moravek, MT-1717);
HEPES filter buffer (50 mM HEPES, pH 7.0, 5 mM MgCl2, BSA 0.01%) Multiscreen FB (1 μm) filter plate (Millipore, MAFBNOB 50).
The 96-well microtitre filter plates are firstly irrigated and coated with 0.1% of polyethylenimine.
The test is carried out under the following conditions:
Reaction temperature 22° C.
Reaction time: 30 min., shaking at 800 rpm
50 mM HEPES HCl, pH 7.0, 5 mM MgCl2, 0.01% (w/v) BSA
At the end of the reaction, the supernatant in the filter plate is removed by suction with the aid of a vacuum manifold (Multiscreen Separation System, Millipore), and the filter is washed twice.
The filter plates are then measured in a beta counter (Microbeta, Wallac) with scintillator (Microscint 20, Packard).
“% of control” is determined from the “counts per minutes” values and the IC-50 value of a compound is calculated therefrom.

Point of comparison: `Brc1ccccc1OC[C@H]1CCCN1c1ncnc2[nH]cnc12` [Compound A52, 6-[(R)-2-(2-Bromophenoxymethyl)-pyrrolidin-1-yl]-9H-purine], IC50 20 µM. Against it:
- Fc1nc(N2CCC[C@@H]2COc2ccccc2F)c2nc[nH]c2n1 [Compound A47, 2-Fluoro-6-[(R)-2-(2-fluorophenoxy-methyl)pyrrolidin-1-yl]-9H-purine] — 22-fold lower, 0.9 µM
- O[C@H]1C[C@H](COc2ccccc2)N(c2nc(Cl)nc3[nH]cnc23)C1 [Compound A53, 2-chloro-6-[(2R,4S)-2-phenoxymethyl-4-hydroxypyrrolidin-1-yl]-9H-purine] — 1.5-fold higher, 30 µM
- Cc1nc(N2CCC[C@@H]2COc2ccccc2F)c2nc[nH]c2n1 [Compound A57, 2-Methyl-6-[(R)-2-(2-fluorophenoxy-methyl)pyrrolidin-1-yl]-9H-purine] — 13-fold lower, 1.5 µM
- Cc1nc(N2CCC[C@@H]2COc2ccccc2Cl)c2nc[nH]c2n1 [Compound A58, 2-Methyl-6-[(R)-2-(2-chloro-phenoxymethyl)pyrrolidin-1-yl]-9H-purine] — 3.2-fold lower, 6.3 µM
